Laboratory results from ChEMBL document CHEMBL1147372, “Bioactive metabolites from Sicilian marine fennel, Crithmum maritimum” (J Nat Prod, 1993).
Converted amounts (≈) assume the structure as drawn.

Assay: Toxicity in Artemia salina after 24 hrs
Type: organism-based
Conditions: in vivo

Row | Structure (SMILES) | LC50 at 24 h [µg/mL]
1 | COc1cc(C=O)ccc1OC/C=C(\C)CCC=C(C)C [GERANYLOXYVANILLIN] | 85.8 (≈ 298 µM)
2 | C=C[C@H](O)C#CC#CC/C=C\CCCCCCC [FALCARINOL] | 0.67 (≈ 2.74 µM)
3 | C=C[C@@H](O)C#CC#C[C@@H](O)/C=C\CCCCCCC [FALCARINDIOL] | 3.32 (≈ 12.8 µM)
